Source: patent publication US11225505B2, “Antimicrobial polymyxin derivative compounds” (MONASH UNIVERSITY, priority 2015, dated 2022)
Converted amounts (≈) assume the structure as drawn. Where a SMILES comes first, the peptide text is derived from it. Bridges are numbered along the chain shown (N, C = ends). [ ]: non-standard residue; d: D form. The star is where a group is joined. Benzothiazole(2-CH2CH2CO) = O=C(CCc1nc2ccccc2s1)*; Benzothiophen(2-yl)carbonyl = O=C(c1cc2ccccc2s1)*; X23 = O=C(c1cc2ccccc2[nH]1)*; X56 = Cn1cc(C(=O)*)c2ccccc21; X27 = O=C(c1sc2ccccc2c1Cl)*; X21 = O=C(c1cnc(Cl)cc1Cl)*; X36 = O=C(c1ncc(Br)cc1Br)*; X50 = O=C(c1sc(Br)cc1Br)*; X54 = O=C(c1cccc(Cl)n1)*; Dab = NCC[C@H](N)C(=O)O; Abu = CC[C@H](N)C(=O)O; Dap = NC[C@H](N)C(=O)O

Tests used:
Format in all cases: cell-based
[1] = test system: Acinetobacter baumannii ATCC 17978; details: ATCC 17978
Procedure, shortened: (§1)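 Lipopeptides (TFA salts) tested against Gram-negative strains by CLSI broth microdilution using cation-adjusted Mueller-Hinton broth; MIC recorded, polymyxin B sulphate as control.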

[2] = test system: Acinetobacter baumannii FADDI-AB034; details: FADDI-AB034
Procedure, shortened: as §1

[3] = test system: Enterobacter cloacae FADDI-EC001; details: FADDI-EC001
Procedure, shortened: (§2)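 In cation-adjusted Mueller-Hinton broth, each lipopeptide (TFA salt) was titrated against the bacteria by microdilution and the minimum inhibitory concentration recorded per CLSI M100-S24; polymyxin B sulphate ran in parallel.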

[4] = test system: Enterobacter cloacae FADDI-EC003; details: FADDI-EC003
Procedure, shortened: as §1

[5] = test system: Enterobacter cloacae FADDI-EC006; details: FADDI-EC006
Procedure, shortened: as §1

[6] = test system: Klebsiella pneumoniae FADDI-KP022; details: FADDI-KP022
Procedure, shortened: as §1

[7] = test system: Klebsiella pneumoniae FADDI-KP032; details: FADDI-KP032
Procedure, shortened: as §1

[8] = test system: Klebsiella pneumoniae Kp BM1; details: Kp BM1
Procedure, shortened: as §2

[9] = test system: Pseudomonas aeruginosa ATCC 27853; details: ATCC 27853
Procedure, shortened: as §1

[10] = test system: Pseudomonas aeruginosa FADDI-PA01; details: FADDI-
Procedure, shortened: as §1

[11] = test system: Pseudomonas aeruginosa FADDI-PA022; details: FADDI-PA022
Procedure, shortened: as §1

[12] = test system: Pseudomonas aeruginosa FADDI-PA038; details: FADDI-PA038
Procedure, shortened: as §1

[13] = test system: Acinetobacter baumannii FADDI-AB030; assay: microbe, parasite or virus in culture; details: FADDI-AB030
Procedure, shortened: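 Lipopeptide TFA salts tested against the multidrug-resistant clinical isolate by CLSI (M100-S24) broth microdilution in cation-adjusted Mueller-Hinton broth, with polymyxin B sulphate as control; MIC read.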

Structure (SMILES) | Minimum inhibitory concentration [1] | Minimum inhibitory concentration [2] | Minimum inhibitory concentration [3] | Minimum inhibitory concentration [4] | Minimum inhibitory concentration [5] | Minimum inhibitory concentration [6] | Minimum inhibitory concentration [7] | Minimum inhibitory concentration [8] | Minimum inhibitory concentration [9] | Minimum inhibitory concentration [10] | Minimum inhibitory concentration [11] | Minimum inhibitory concentration [12] | Minimum inhibitory concentration [13]
CC[C@@H]1NC(=O)[C@@H](CC(C)C)NC(=O)[C@H](CCN)NC(=O)[C@@H](NC(=O)[C@H](CN)NC(=O)[C@@H](NC(=O)[C@H](CCN)NC(=O)c2cc3ccccc3s2)[C@@H](C)O)CCNC(=O)[C@H]([C@@H](C)O)NC(=O)[C@H](CCN)NC(=O)[C@H](CCN)NC1=O [Compound 50] ({Benzothiophen(2-yl)carbonyl}-[Dab]T[Dap][Dab][Dab][dL][Abu][Dab][Dab]T; lactam 4-C) | <0.125 µg/mL | <0.125 µg/mL | 0.25 µg/mL (≈ 0.218 µM) | 0.5 µg/mL (≈ 0.436 µM) | 0.5 µg/mL (≈ 0.436 µM) | <0.125 µg/mL | 0.25 µg/mL (≈ 0.218 µM) | 0.5 µg/mL (≈ 0.436 µM) | 0.5 µg/mL (≈ 0.436 µM) | <0.125 µg/mL | 0.25 µg/mL (≈ 0.218 µM) | 0.25 µg/mL (≈ 0.218 µM) | 0.5 µg/mL (≈ 0.436 µM)
CC[C@@H]1NC(=O)[C@@H](CC(C)C)NC(=O)[C@H](CCN)NC(=O)[C@@H](NC(=O)[C@H](CN)NC(=O)[C@@H](NC(=O)[C@H](CCN)NC(=O)c2cn(C)c3ccccc23)[C@@H](C)O)CCNC(=O)[C@H]([C@@H](C)O)NC(=O)[C@H](CCN)NC(=O)[C@H](CCN)NC1=O [Compound 63] (X56-[Dab]T[Dap][Dab][Dab][dL][Abu][Dab][Dab]T; lactam 4-C) | 1 µg/mL (≈ 0.874 µM) | 1 µg/mL (≈ 0.874 µM) | <0.125 µg/mL | 2 µg/mL (≈ 1.75 µM) | 2 µg/mL (≈ 1.75 µM) | <0.125 µg/mL | <0.125 µg/mL | <0.125 µg/mL | 0.5 µg/mL (≈ 0.437 µM) | <0.125 µg/mL | 0.25 µg/mL (≈ 0.218 µM) | 0.5 µg/mL (≈ 0.437 µM) | 0.5 µg/mL (≈ 0.437 µM)
CC[C@@H]1NC(=O)[C@@H](CC(C)C)NC(=O)[C@H](CCN)NC(=O)[C@@H](NC(=O)[C@H](CN)NC(=O)[C@@H](NC(=O)[C@H](CCN)NC(=O)c2sc(Br)cc2Br)[C@@H](C)O)CCNC(=O)[C@H]([C@@H](C)O)NC(=O)[C@H](CCN)NC(=O)[C@H](CCN)NC1=O [Compound 85] (X50-[Dab]T[Dap][Dab][Dab][dL][Abu][Dab][Dab]T; lactam 4-C) | <0.125 µg/mL | 0.25 µg/mL (≈ 0.199 µM) | 0.25 µg/mL (≈ 0.199 µM) | 0.25 µg/mL (≈ 0.199 µM) | <0.125 µg/mL | <0.125 µg/mL | <0.125 µg/mL | 0.25 µg/mL (≈ 0.199 µM) | 0.25 µg/mL (≈ 0.199 µM) | 0.25 µg/mL (≈ 0.199 µM) | 0.25 µg/mL (≈ 0.199 µM) | 0.5 µg/mL (≈ 0.398 µM) | <0.125 µg/mL
CC[C@@H]1NC(=O)[C@@H](CC(C)C)NC(=O)[C@H](CCN)NC(=O)[C@@H](NC(=O)[C@H](CN)NC(=O)[C@@H](NC(=O)[C@H](CCN)NC(=O)c2cccc(Cl)n2)[C@@H](C)O)CCNC(=O)[C@H]([C@@H](C)O)NC(=O)[C@H](CCN)NC(=O)[C@H](CCN)NC1=O [Compound 43] (X54-[Dab]T[Dap][Dab][Dab][dL][Abu][Dab][Dab]T; lactam 4-C) | 4 µg/mL (≈ 3.55 µM) | 4 µg/mL (≈ 3.55 µM) | <0.125 µg/mL | 0.25 µg/mL (≈ 0.222 µM) | 0.5 µg/mL (≈ 0.444 µM) | <0.125 µg/mL | 0.25 µg/mL (≈ 0.222 µM) | 0.25 µg/mL (≈ 0.222 µM) | 0.25 µg/mL (≈ 0.222 µM) | 0.25 µg/mL (≈ 0.222 µM) | 0.25 µg/mL (≈ 0.222 µM) | 1 µg/mL (≈ 0.888 µM) | 4 µg/mL (≈ 3.55 µM)
CC[C@@H]1NC(=O)[C@@H](CC(C)C)NC(=O)[C@H](CCN)NC(=O)[C@@H](NC(=O)[C@H](CN)NC(=O)[C@@H](NC(=O)[C@H](CCN)NC(=O)CCc2nc3ccccc3s2)[C@@H](C)O)CCNC(=O)[C@H]([C@@H](C)O)NC(=O)[C@H](CCN)NC(=O)[C@H](CCN)NC1=O [Compound 72] ({Benzothiazole(2-CH2CH2CO)}-[Dab]T[Dap][Dab][Dab][dL][Abu][Dab][Dab]T; lactam 4-C) | 0.5 µg/mL (≈ 0.425 µM) | 0.5 µg/mL (≈ 0.425 µM) | <0.125 µg/mL | <0.125 µg/mL | <0.125 µg/mL | <0.125 µg/mL | <0.125 µg/mL | <0.125 µg/mL | 0.5 µg/mL (≈ 0.425 µM) | 0.5 µg/mL (≈ 0.425 µM) | 0.5 µg/mL (≈ 0.425 µM) | 0.5 µg/mL (≈ 0.425 µM) | 0.5 µg/mL (≈ 0.425 µM)
CC(C)C[C@H]1NC(=O)[C@H](CCN)NC(=O)[C@@H](NC(=O)[C@H](CN)NC(=O)[C@@H](NC(=O)[C@H](CCN)NC(=O)c2ncc(Br)cc2Br)[C@@H](C)O)CCNC(=O)[C@H]([C@@H](C)O)NC(=O)[C@H](CCN)NC(=O)[C@H](CCN)NC(=O)[C@H]([C@@H](C)O)NC1=O [Compound 29] (X36-[Dab]T[Dap][Dab][Dab][dL]T[Dab][Dab]T; lactam 4-C) | 2 µg/mL (≈ 1.58 µM) | 2 µg/mL (≈ 1.58 µM) | 0.25 µg/mL (≈ 0.197 µM) | 0.25 µg/mL (≈ 0.197 µM) | <0.125 µg/mL | 0.25 µg/mL (≈ 0.197 µM) | 1 µg/mL (≈ 0.79 µM) | 0.5 µg/mL (≈ 0.395 µM) | 1 µg/mL (≈ 0.79 µM) | 0.5 µg/mL (≈ 0.395 µM) | 0.25 µg/mL (≈ 0.197 µM) | 1 µg/mL (≈ 0.79 µM) | 1 µg/mL (≈ 0.79 µM)
CC[C@@H]1NC(=O)[C@@H](CC(C)C)NC(=O)[C@H](CCN)NC(=O)[C@@H](NC(=O)[C@H](CN)NC(=O)[C@@H](NC(=O)[C@H](CCN)NC(=O)c2cnc(Cl)cc2Cl)[C@@H](C)O)CCNC(=O)[C@H]([C@@H](C)O)NC(=O)[C@H](CCN)NC(=O)[C@H](CCN)NC1=O [Compound 2] (X21-[Dab]T[Dap][Dab][Dab][dL][Abu][Dab][Dab]T; lactam 4-C) | 8 µg/mL (≈ 6.89 µM) | 8 µg/mL (≈ 6.89 µM) | 0.25 µg/mL (≈ 0.215 µM) | 2 µg/mL (≈ 1.72 µM) | 2 µg/mL (≈ 1.72 µM) | <0.125 µg/mL | 0.5 µg/mL (≈ 0.431 µM) | 0.5 µg/mL (≈ 0.431 µM) | 0.5 µg/mL (≈ 0.431 µM) | 0.5 µg/mL (≈ 0.431 µM) | 0.5 µg/mL (≈ 0.431 µM) | 1 µg/mL (≈ 0.861 µM) | 2 µg/mL (≈ 1.72 µM)
CC[C@@H]1NC(=O)[C@@H](CC(C)C)NC(=O)[C@H](CCN)NC(=O)[C@@H](NC(=O)[C@H](CN)NC(=O)[C@@H](NC(=O)[C@H](CCN)NC(=O)c2sc3ccccc3c2Cl)[C@@H](C)O)CCNC(=O)[C@H]([C@@H](C)O)NC(=O)[C@H](CCN)NC(=O)[C@H](CCN)NC1=O [Compound 61] (X27-[Dab]T[Dap][Dab][Dab][dL][Abu][Dab][Dab]T; lactam 4-C) | <0.125 µg/mL | <0.125 µg/mL | 0.25 µg/mL (≈ 0.212 µM) | <0.125 µg/mL | <0.125 µg/mL | <0.125 µg/mL | <0.125 µg/mL | 0.25 µg/mL (≈ 0.212 µM) | 0.25 µg/mL (≈ 0.212 µM) | <0.125 µg/mL | 0.25 µg/mL (≈ 0.212 µM) | 0.25 µg/mL (≈ 0.212 µM) | <0.125 µg/mL
CC(C)C[C@H]1NC(=O)[C@H](CCN)NC(=O)[C@@H](NC(=O)[C@H](CN)NC(=O)[C@@H](NC(=O)[C@H](CCN)NC(=O)c2cc3ccccc3[nH]2)[C@@H](C)O)CCNC(=O)[C@H]([C@@H](C)O)NC(=O)[C@H](CCN)NC(=O)[C@H](CCN)NC(=O)[C@H](C)NC1=O [Compound 67] (X23-[Dab]T[Dap][Dab][Dab][dL]A[Dab][Dab]T; lactam 4-C) | 2 µg/mL (≈ 1.79 µM) | 1 µg/mL (≈ 0.896 µM) | 0.5 µg/mL (≈ 0.448 µM) | 0.5 µg/mL (≈ 0.448 µM) | 1 µg/mL (≈ 0.896 µM) | 0.5 µg/mL (≈ 0.448 µM) | 0.5 µg/mL (≈ 0.448 µM) | 0.5 µg/mL (≈ 0.448 µM) | 0.25 µg/mL (≈ 0.224 µM) | 0.5 µg/mL (≈ 0.448 µM) | 0.25 µg/mL (≈ 0.224 µM) | 1 µg/mL (≈ 0.896 µM) | 1 µg/mL (≈ 0.896 µM)
